Data: ChEMBL document CHEMBL5550222, “Synthesis and Biological Evaluation of Novel Psidium Meroterpenoid Derivatives against Cisplatin-Induced Acute Kidney Injury” (J Med Chem, 2024)
Activity calls are given as the source filed them. The rule behind the calls is not given here.

Key:
HK-2 [1] = assay: Effect on OCT1 mRNA level in human HK-2 cells by transcriptome sequencing analysis; type: functional, cell-based
HK-2 [2] = assay: Effect on MRP1 mRNA level in human HK-2 cells by transcriptome sequencing analysis; type: functional, cell-based
Mus musculus [3] = assay: (§1) Protection against cisplatin-induced nephrotoxicity in C57BL6/J mouse assessed as reduction in BUN level in kidney at 25 to 100 mg/kg, po preadministered with compound for 2 days followed by cisplatin addition on day 3 and measured 72 hrs post cisplatin administration; type: functional, organism-based; settings: dose 25-100 mg/kg, time 5.0 day
HK-2 [4] = assay: Upregulation of AMPK gene expression in human HK-2 cells by KEGG analysis; type: functional, cell-based
HK-2 [5] = assay: Induction of autophagy in human HK-2 cells assessed as upregulation of LC3II expression at 2.5 to 10 uM by Western blotting analysis; type: functional, cell-based; settings: dose 2.5-10 µM
HK-2 [6] = assay: Inhibition of cisplatin-induced DNA damage in human HK-2 cells assessed as […] in comet tail length by comet assay; type: functional, cell-based; settings: dose 2.5-10 µM
HK-2 [7] = assay: Induction of autophagy in human HK-2 cells assessed as upregulation of ATG5 expression at 2.5 to 10 uM by Western blotting analysis; type: functional, cell-based; settings: dose 2.5-10 µM
HK-2 [8] = assay: Upregulation of ATP7B mRNA level in human HK-2 cells at 2.5 to 10 uM by RT-qPCR analysis; type: functional, cell-based; settings: dose 2.5-10 µM
HK-2 [9] = assay: Upregulation of PI3K gene expression in human HK-2 cells by KEGG analysis; type: functional, cell-based
HK-2 [10] = assay: Effect on SLC47A1 mRNA level in human HK-2 cells by transcriptome sequencing analysis; type: functional, cell-based
HK-2 [11] = assay: Induction of autophagy in human HK-2 cells assessed as upregulation of AMPKalpha expression at 2.5 to 10 uM by Western blotting analysis; type: functional, cell-based; settings: dose 2.5-10 µM
[12] = (§2) Antitumor activity against cisplatin-induced mouse Lewis lung carcinoma cell line xenografted C57BL/6J mouse assessed as reduction in tumor mass at 25 to 50 mg/kg, po preadministered with compound for 2 days followed by cisplatin addition on day 3 and measured 72 hrs post cisplatin administration; type: functional; set-up: scale not given: the % may be the effect or the level left; settings: dose 25-50 mg/kg, time 5 day
HK-2 [13] = assay: Effect on CTR1 mRNA level in human HK-2 cells by transcriptome sequencing analysis; type: functional, cell-based
HK-2 [14] = assay: Upregulation of ATP7A level in human HK-2 cells at 2.5 to 10 uM by Western blot analysis; type: functional, cell-based; settings: dose 2.5-10 µM
NCI-H460 = assay: Cytotoxicity against human NCI-H460 cells; type: functional, cell-based
HK-2 [15] = assay: Upregulation of AKT gene expression in human HK-2 cells by KEGG analysis; type: functional, cell-based
HK-2 [16] = assay: Induction of autophagy in human HK-2 cells assessed as […] at 2.5 to 10 uM by Western blotting analysis; type: functional, cell-based; settings: dose 2.5-10 µM
Mus musculus [17] = assay: Protection against cisplatin-induced nephrotoxicity in po dosed C57BL6/J mouse assessed as reduction in SCR level in kidney Preadministered with compound for 2 days followed by cisplatin addition on day 3 and measured 72 hrs post cisplatin administration; type: functional, organism-based; settings: dose 25-100 mg/kg, time 5.0 day
HK-2 [18] = assay: Induction of autophagy in human HK-2 cells assessed as upregulation of PI3K class III expression at 2.5 to 10 uM by Western blotting analysis; type: functional, cell-based; settings: dose 2.5-10 µM
HK-2 [19] = assay: Reduction in intracellular cisplatin accumulation in human HK-2 cells by ICP-MS analysis; type: functional, cell-based; settings: dose 2.5-10 µM
Cell membrane [20] = assay: Induction of mitochondrial membrane potential loss in human HK-2 cells at 2.5 to 10 uM by JC-1 staining based laser microscopic analysis; type: cell membranes; settings: dose 2.5-10 µM
HK-2 [21] = assay: Induction of autophagy in human HK-2 cells assessed as upregulation of p62 expression at 2.5 to 10 uM by Western blotting analysis; type: functional, cell-based; settings: dose 2.5-10 µM
Lewis lung carcinoma [22] = assay: Antitumor activity against cisplatin-induced mouse Lewis lung carcinoma cell line xenografted C57BL/6J mouse assessed as reduction in tumor mass at 25 to 100 mg/kg, po preadministered with compound for 2 days followed by cisplatin addition on day 3 and measured 72 hrs post cisplatin administration; type: functional, organism-based; settings: dose 25-100 mg/kg, time 5.0 day
Cell membrane [23] = assay: Induction of mitochondrial membrane potential loss in human HK-2 cells assessed as increase in OPA1 expression by Western blot analysis; type: cell membranes; settings: dose 2.5-10 µM
HK-2 [24] = assay: Effect on ATP7B mRNA level in human HK-2 cells by transcriptome sequencing analysis; type: functional, cell-based; settings: dose 2.5-10 µM
HK-2 [25] = assay: Upregulation of ATP7A mRNA level in human HK-2 cells at 2.5 to 10 uM by RT-qPCR analysis; type: functional, cell-based; settings: dose 2.5-10 µM
HK-2 [26] = assay: Induction of autophagy in human HK-2 cells assessed as upregulation of beclin1 expression at 2.5 to 10 uM by Western blotting analysis; type: functional, cell-based; settings: dose 2.5-10 µM
Lewis lung carcinoma [27] = assay: as §2, with “inflammatory cell infiltration” for “reduction in tumor mass”, “administration by H and E staining based analysis” for “administration”; type: functional, organism-based; settings: dose 25-50 mg/kg, time 5.0 day
HK-2 [28] = assay: Upregulation of CTR1 mRNA level in human HK-2 cells at 2.5 to 10 uM by RT-qPCR analysis; type: functional, cell-based; settings: dose 2.5-10 µM
HK-2 [29] = assay: Protection against cisplatin-induced apoptosis in human HK-2 cells preincubated with compound for 2 hrs followed by cisplatin induction and measured after 48 hrs by FITC/PI staining based flow cytometry analysis; type: functional, cell-based; settings: dose 2.5-10 µM, time 50.0 hrs
Lewis lung carcinoma [30] = assay: Antitumor activity against cisplatin-induced mouse Lewis lung carcinoma cell line xenografted in po dosed C57BL/6J mouse assessed as reduction in BUN level in serum preadministered with compound for 2 days followed by cisplatin addition on day 3 and measured 72 hrs post cisplatin administration; type: functional, organism-based; settings: dose 25-100 mg/kg, time 5.0 day
Cell membrane [31] = assay: Induction of mitochondrial membrane potential loss in human HK-2 cells assessed as increase in sirtuin 3 expression by Western blot analysis; type: cell membranes; settings: dose 2.5-10 µM
Lewis lung carcinoma [32] = assay: Cytotoxicity against mouse Lewis lung carcinoma cell line; type: functional, cell-based
HK-2 [33] = assay: Upregulation of ATP7B level in human HK-2 cells at 2.5 to 10 uM by Western blot analysis; type: functional, cell-based; settings: dose 2.5-10 µM
HK-2 [34] = assay: Effect on OCT2 mRNA level in human HK-2 cells by transcriptome sequencing analysis; type: functional, cell-based
HK-2 [35] = assay: Protection against cisplatin-induced apoptosis in human HK-2 cells assessed as improvement in cell morphology preincubated with compound for 2 hrs followed by cisplatin induction and measured after 48 hrs by light microscopic analysis; type: functional, cell-based; settings: dose 2.5-10 µM, time 50.0 hrs
HCT-116 = assay: Cytotoxicity against human HCT-116 cells; type: functional, cell-based
HK-2 [36] = assay: Protection against cisplatin-induced apoptosis in human HK-2 cells assessed as improvement in cell number preincubated with compound for 2 hrs followed by cisplatin induction and measured after 48 hrs by light microscopic analysis; type: functional, cell-based; settings: dose 2.5-10 µM, time 50.0 hrs
HK-2 [37] = assay: Protection against cisplatin-induced apoptosis in human HK-2 cells assessed as reduction in cleaved caspase 3 expression preincubated with compound for 2 hrs followed by cisplatin induction and measured after 48 hrs by Western blot analysis; type: functional, cell-based; settings: dose 2.5-10 µM, time 50.0 hrs
HK-2 [38] = assay: Inhibition of cisplatin-induced DNA damage in human HK-2 cells assessed as reduction in cleaved-PARP level at 2.5 to 10 uM by Western blot analysis; type: functional, cell-based; settings: dose 2.5-10 µM
HK-2 [39] = assay: Inhibition of cisplatin-induced DNA damage in human HK-2 cells assessed as reduction in p-histone-H2AX level at 2.5 to 10 uM by Western blot analysis; type: functional, cell-based; settings: dose 2.5-10 µM
Mus musculus [40] = assay: as §1, with “infiltration of inflammatory cells” for “BUN level in kidney”, “at” for “at 25 to”, “administration by H and E staining based analysis” for “administration”; type: functional, organism-based; settings: time 5.0 day

SMILES: COc1c(C=O)c(OC)c(C(=O)c2ccccc2)c2c1CC1CC/C(C)=C/CC(C)(C)/C=C/CC1(C)O2 (centres undefined)
- Activity (HK-2 [1]): inactive
- Activity (HK-2 [2]): inactive
- Activity (Mus musculus [3]): Active
- Activity (HK-2 [4]): Active
- Activity (HK-2 [5]): Active
- inhibition (HK-2 [6]): Dose-Dependent Effect
- Activity (HK-2 [7]): Active
- Activity (HK-2 [8]): Active
- Activity (HK-2 [9]): Active
- Activity (HK-2 [10]): inactive
- Activity (HK-2 [11]): Active
- Activity [12]: 31.4%
- Activity (HK-2 [13]): inactive
- Activity (HK-2 [14]): Active
- Activity (NCI-H460): Active
- Activity (HK-2 [15]): Active
- Activity (HK-2 [16]): Active
- Activity (Mus musculus [17]): Dose-Dependent Effect
- Activity (HK-2 [18]): Active
- Activity (HK-2 [19]): Dose-Dependent Effect
- Activity (Cell membrane [20]): Active
- Activity (HK-2 [21]): Active
- Activity (Lewis lung carcinoma [22]): Active
- Activity (Cell membrane [23]): Active
- Activity (HK-2 [24]): Dose-Dependent Effect
- Activity (HK-2 [25]): Active
- Activity (HK-2 [26]): Active
- Activity (Lewis lung carcinoma [27]): Active
- Activity (HK-2 [28]): Active
- Activity (HK-2 [29]): Dose-Dependent Effect
- Activity (Lewis lung carcinoma [30]): Active
- Activity (Cell membrane [31]): Active
- Activity (Lewis lung carcinoma [32]): Active
- Activity (HK-2 [33]): Active
- Activity (HK-2 [34]): inactive
- Activity (HK-2 [35]): Dose-Dependent Effect
- Activity (HCT-116): Active
- Activity (HK-2 [36]): Dose-Dependent Effect
- Activity (HK-2 [37]): Dose-Dependent Effect
- inhibition (HK-2 [38]): Active
- inhibition (HK-2 [39]): Active
- Activity (Mus musculus [40]): Active

SMILES: COc1c(CO)c(OC)c(C(=O)c2ccccc2)c2c1C[C@H]1CC/C(C)=C/CC(C)(C)/C=C/C[C@]1(C)O2
- Activity (HK-2 [1]): inactive
- Activity (HK-2 [2]): inactive
- Activity (Mus musculus [3]): Active
- Activity (HK-2 [4]): Active
- Activity (HK-2 [5]): Active
- inhibition (HK-2 [6]): Dose-Dependent Effect
- Activity (HK-2 [7]): Active
- Activity (HK-2 [8]): Active
- Activity (HK-2 [9]): Active
- Activity (HK-2 [10]): inactive
- Activity (HK-2 [11]): Active
- Activity [12]: 28.1%
- Activity (HK-2 [13]): inactive
- Activity (HK-2 [14]): Active
- Activity (NCI-H460): Active
- Activity (HK-2 [15]): Active
- Activity (HK-2 [16]): Active
- Activity (Mus musculus [17]): Dose-Dependent Effect
- Activity (HK-2 [18]): Active
- Activity (HK-2 [19]): Dose-Dependent Effect
- Activity (Cell membrane [20]): Active
- Activity (HK-2 [21]): Active
- Activity (Lewis lung carcinoma [22]): Active
- Activity (Cell membrane [23]): Active
- Activity (HK-2 [24]): Dose-Dependent Effect
- Activity (HK-2 [25]): Active
- Activity (HK-2 [26]): Active
- Activity (Lewis lung carcinoma [27]): Active
- Activity (HK-2 [28]): Active
- Activity (HK-2 [29]): Dose-Dependent Effect
- Activity (Lewis lung carcinoma [30]): Active
- Activity (Cell membrane [31]): Active
- Activity (Lewis lung carcinoma [32]): Active
- Activity (HK-2 [33]): Active
- Activity (HK-2 [34]): inactive
- Activity (HK-2 [35]): Dose-Dependent Effect
- Activity (HCT-116): Active
- Activity (HK-2 [36]): Dose-Dependent Effect
- Activity (HK-2 [37]): Dose-Dependent Effect
- inhibition (HK-2 [38]): Active
- inhibition (HK-2 [39]): Active
- Activity (Mus musculus [40]): Active
